How the values were obtained:
[1] = target: T1, Dual serine/threonine and tyrosine protein kinase (Homo sapiens) (UniProt Q6XUX3); test: Selectivity interaction (KinomeScan (DiscoverX)) EUB0000229b DSTYK; details: at 10 µM
T1 sequence (whole entry): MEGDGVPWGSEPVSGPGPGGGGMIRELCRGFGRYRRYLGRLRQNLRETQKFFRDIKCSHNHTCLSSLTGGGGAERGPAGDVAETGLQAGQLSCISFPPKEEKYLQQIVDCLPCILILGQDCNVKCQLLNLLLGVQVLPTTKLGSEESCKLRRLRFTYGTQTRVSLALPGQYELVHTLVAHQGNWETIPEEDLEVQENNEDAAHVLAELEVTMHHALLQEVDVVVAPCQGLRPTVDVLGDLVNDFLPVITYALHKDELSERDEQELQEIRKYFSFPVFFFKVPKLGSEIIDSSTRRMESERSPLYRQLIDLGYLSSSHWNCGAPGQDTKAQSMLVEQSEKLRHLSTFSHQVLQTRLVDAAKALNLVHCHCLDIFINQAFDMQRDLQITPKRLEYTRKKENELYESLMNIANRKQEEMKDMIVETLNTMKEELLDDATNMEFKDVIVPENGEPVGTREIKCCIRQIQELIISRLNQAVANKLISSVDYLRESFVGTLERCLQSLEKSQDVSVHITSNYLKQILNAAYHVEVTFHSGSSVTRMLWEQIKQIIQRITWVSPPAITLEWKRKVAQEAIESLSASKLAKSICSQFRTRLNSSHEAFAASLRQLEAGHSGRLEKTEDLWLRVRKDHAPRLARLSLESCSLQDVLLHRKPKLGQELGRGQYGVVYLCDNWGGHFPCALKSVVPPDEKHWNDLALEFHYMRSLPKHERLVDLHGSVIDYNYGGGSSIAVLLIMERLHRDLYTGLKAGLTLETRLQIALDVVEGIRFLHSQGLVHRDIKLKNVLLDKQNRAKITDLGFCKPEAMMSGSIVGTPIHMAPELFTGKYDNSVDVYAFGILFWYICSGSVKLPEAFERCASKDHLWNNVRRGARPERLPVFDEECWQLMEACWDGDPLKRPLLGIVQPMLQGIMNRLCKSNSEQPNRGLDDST

[2] = target: T2, Kinase suppressor of Ras 1 (Homo sapiens) (UniProt Q8IVT5); test: Selectivity interaction (ActivX KiNativ screen (ex vivo kinase selectivity in human PBMCs)) EUB0001619a KSR1; format: cell-based; details: PBMC, at 1 µM
T2 sequence (whole entry): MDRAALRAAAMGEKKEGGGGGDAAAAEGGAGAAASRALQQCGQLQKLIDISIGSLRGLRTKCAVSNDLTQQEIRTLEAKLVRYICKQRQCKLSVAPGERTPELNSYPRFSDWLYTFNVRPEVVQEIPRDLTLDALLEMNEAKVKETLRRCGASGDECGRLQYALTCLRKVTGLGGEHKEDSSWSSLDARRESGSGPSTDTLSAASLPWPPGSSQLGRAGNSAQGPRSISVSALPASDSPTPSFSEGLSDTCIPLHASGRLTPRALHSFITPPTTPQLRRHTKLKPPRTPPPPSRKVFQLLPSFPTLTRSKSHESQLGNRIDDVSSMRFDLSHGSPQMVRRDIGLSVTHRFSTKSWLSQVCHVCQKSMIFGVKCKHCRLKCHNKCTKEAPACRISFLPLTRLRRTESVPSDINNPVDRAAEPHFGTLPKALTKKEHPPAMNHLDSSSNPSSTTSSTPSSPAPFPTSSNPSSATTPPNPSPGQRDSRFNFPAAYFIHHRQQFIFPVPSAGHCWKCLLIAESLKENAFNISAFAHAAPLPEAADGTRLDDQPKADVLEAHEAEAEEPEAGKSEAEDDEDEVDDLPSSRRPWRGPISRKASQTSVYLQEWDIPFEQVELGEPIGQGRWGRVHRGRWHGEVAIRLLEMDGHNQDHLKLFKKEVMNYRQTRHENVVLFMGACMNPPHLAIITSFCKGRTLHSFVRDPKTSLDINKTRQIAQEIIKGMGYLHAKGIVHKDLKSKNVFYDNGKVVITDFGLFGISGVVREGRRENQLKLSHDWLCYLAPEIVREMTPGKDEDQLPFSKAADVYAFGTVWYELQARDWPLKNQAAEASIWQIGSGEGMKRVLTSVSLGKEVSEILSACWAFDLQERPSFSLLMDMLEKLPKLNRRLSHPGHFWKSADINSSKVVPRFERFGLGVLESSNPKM

[3] = target: T3, MAP/microtubule affinity-regulating kinase 4 (Homo sapiens) (UniProt Q96L34); test: Selectivity interaction (KinomeScan (DiscoverX)) EUB0001619a MARK4; details: at 1 µM
T3 sequence (whole entry): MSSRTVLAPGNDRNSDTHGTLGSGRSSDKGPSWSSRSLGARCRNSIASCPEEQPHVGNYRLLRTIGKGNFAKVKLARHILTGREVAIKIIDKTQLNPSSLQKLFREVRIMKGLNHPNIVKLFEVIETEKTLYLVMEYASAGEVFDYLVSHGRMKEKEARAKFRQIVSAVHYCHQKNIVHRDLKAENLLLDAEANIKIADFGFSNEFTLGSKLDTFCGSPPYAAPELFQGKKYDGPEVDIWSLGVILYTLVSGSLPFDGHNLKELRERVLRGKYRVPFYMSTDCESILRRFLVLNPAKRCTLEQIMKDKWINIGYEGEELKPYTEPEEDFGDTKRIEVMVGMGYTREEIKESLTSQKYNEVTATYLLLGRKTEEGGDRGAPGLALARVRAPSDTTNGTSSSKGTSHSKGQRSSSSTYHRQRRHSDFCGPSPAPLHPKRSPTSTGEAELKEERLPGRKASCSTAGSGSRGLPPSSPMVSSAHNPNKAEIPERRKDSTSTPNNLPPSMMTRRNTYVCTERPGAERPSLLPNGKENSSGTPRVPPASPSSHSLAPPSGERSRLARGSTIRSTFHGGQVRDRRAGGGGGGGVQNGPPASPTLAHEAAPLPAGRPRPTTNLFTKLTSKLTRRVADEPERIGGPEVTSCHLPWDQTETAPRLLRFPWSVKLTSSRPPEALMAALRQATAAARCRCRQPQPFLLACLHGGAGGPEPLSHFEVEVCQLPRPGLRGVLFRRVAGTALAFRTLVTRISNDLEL

[4] = target: Insulin receptor-related protein (Homo sapiens) (UniProt P14616); test: Selectivity interaction (KinomeScan (DiscoverX)) EUB0000618a INSRR; details: at 10 µM
Sequence of Insulin receptor-related protein (Homo sapiens) (P14616 27-742 limits assumed): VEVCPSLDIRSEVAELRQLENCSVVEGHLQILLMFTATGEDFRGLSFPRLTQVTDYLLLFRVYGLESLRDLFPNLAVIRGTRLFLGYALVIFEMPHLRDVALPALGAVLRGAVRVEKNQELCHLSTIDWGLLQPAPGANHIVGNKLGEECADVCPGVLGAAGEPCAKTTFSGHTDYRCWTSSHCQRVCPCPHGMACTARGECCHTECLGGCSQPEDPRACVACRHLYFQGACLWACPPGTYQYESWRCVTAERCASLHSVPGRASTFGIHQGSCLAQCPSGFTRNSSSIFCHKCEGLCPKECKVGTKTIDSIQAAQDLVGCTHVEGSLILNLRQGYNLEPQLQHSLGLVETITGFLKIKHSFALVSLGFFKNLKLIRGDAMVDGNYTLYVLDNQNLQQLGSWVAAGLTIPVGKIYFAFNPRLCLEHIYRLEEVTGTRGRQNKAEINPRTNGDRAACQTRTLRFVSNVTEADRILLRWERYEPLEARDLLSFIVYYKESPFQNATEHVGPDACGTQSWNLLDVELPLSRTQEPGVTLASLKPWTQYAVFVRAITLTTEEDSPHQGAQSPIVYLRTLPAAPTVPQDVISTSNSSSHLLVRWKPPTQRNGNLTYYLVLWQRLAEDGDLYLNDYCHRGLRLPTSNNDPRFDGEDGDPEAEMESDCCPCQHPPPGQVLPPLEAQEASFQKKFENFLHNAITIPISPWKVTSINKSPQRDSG
Sequence of Insulin receptor-related protein (Homo sapiens) (P14616 747-1297 limits assumed): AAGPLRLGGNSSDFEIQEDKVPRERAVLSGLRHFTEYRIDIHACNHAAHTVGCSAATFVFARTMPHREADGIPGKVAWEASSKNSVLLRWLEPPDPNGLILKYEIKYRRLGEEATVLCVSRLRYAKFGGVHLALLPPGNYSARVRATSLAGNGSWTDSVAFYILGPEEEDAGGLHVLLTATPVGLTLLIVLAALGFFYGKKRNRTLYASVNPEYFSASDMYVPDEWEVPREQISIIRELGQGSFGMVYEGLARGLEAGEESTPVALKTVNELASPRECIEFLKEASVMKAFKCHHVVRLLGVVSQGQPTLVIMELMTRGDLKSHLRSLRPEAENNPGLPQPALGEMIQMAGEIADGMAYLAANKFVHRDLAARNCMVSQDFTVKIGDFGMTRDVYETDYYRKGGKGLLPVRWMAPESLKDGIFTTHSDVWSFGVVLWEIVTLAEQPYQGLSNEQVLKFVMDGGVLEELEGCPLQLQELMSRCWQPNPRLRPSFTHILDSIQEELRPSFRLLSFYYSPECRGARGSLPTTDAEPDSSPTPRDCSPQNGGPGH

In the case of `COc1cc(N(C)c2ccnc3ccc(C(F)(F)F)cc23)cc(OC)c1OC`, the % binding [1] was 82%.

`N#Cc1cccc(-c2c[nH]c3ncnc(N4CCOCC4)c23)c1` was tested, and the % of inhibition [2] was 12% and the % of control [3] was 82%.

Work on `O[C@H]1CC[C@H](Nc2ncc3nc(Nc4c(F)cc(F)cc4F)n([C@H]4CCOC4)c3n2)CC1` yielded a % of control [4] of 100%.

— ChEMBL document CHEMBL5465560, “Selectivity Literature for EUbOPEN Chemogenomic Library” (2024)
